Experimental data from patent US20230158025A1 (UNIVERSITY OF UTAH RESEARCH FOUNDATION, priority 2020, published 2023).
Read-outs that look alike come from different tables or passages of the source.

Assays:
[1] = molecular target: recombinant human GALK1 (Homo sapiens, UniProt P51570); experiment: hGALK1 biochemical activity assay (Kinase-Glo Plus, ATP depletion)
Outline: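 Recombinant human or mouse GALK1 (5 nM, with 100 μM galactose, in the added enzyme solution) was run with ATP (35 μM in the substrate solution) in HEPES pH 8.0 buffer. Compounds were tested at 11 1/3-step concentrations from 57.4 μM to 0.97 nM. After 1 h at room temperature, remaining ATP was read by Kinase-Glo Plus luminescence.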

[2] = rat microsomal stability (RLM)
[3] = PAMPA permeability
[4] = aqueous kinetic solubility
[5] = molecular target: recombinant mouse GALK1 (Mus musculus, UniProt Q9R0N0); experiment: mGALK1 biochemical activity assay (Kinase-Glo Plus, ATP depletion)
Outline: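 Recombinant GALK1 (5 nM) with 100 μM galactose; GALK1 turnover read as ATP depletion by Kinase-Glo Plus luminescence. Reaction ran 1 h at room temperature before detection reagent was added.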

[6] = Tables 2-15, 35 μM ATP, 100 μM galactose, 1 h, bracketed figure after some values (e.g. −1.2) is undefined and not reported, read-out: hGALK IC50
[7] = recombinant human GALK1, Kinase-Glo Plus ATP depletion, read-out: hGALK
[8] = Tables 2-15, 35 μM ATP, 100 μM galactose, 1 h, bracketed figure after some values is undefined and not reported, read-out: mGALK IC50
[9] = recombinant mouse GALK1, Kinase-Glo Plus ATP depletion, read-out: mGALK
[10] = recombinant human GALK1, Kinase-Glo Plus ATP depletion, bracketed figure in the cell, e.g. (−1.2), is not defined in the text shown, read-out: hGALK
[11] = microsomal stability half-life, minutes
[12] = recombinant mouse GALK1, Kinase-Glo Plus ATP depletion, bracketed figure in the cell, e.g. (−1.2), is not defined in the text shown, read-out: mGALK

recombinant mouse GALK1, sequence (Q9R0N0 whole entry): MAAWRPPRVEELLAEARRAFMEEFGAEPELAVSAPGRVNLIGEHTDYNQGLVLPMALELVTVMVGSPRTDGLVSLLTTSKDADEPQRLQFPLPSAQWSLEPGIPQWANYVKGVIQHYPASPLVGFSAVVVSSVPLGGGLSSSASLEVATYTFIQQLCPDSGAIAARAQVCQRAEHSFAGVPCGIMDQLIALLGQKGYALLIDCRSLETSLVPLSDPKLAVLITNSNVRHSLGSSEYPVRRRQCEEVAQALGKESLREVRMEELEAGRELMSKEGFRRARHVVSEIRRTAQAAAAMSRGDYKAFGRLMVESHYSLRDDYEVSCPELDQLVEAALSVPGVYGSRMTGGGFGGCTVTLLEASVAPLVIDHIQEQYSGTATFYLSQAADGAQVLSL
recombinant human GALK1, sequence (P51570 whole entry): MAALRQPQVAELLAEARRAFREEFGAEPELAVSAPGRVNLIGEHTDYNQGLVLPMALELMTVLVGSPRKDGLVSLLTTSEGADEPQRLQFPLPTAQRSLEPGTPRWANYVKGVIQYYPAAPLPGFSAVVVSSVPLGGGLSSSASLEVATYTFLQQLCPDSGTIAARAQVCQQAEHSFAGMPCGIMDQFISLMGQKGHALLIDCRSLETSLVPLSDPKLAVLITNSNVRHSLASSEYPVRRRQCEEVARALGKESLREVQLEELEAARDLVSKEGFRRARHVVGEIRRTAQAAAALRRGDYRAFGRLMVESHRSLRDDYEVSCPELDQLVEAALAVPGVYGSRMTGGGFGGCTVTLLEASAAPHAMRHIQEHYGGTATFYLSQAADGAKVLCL

| hGALK (μM) ([1]; recombinant human GALK1, Kinase-Glo Plus ATP depletion) | Metab. Stabil. (m) ([2]; microsomal half-life) | Perm. (1 × 10^−6 cm/sec) [3] | Sol. [4] [µg/mL] | mGALK (μM) ([5]; recombinant mouse GALK1, Kinase-Glo Plus ATP depletion) | IC50 [1, 6] [µM] | IC50 [1, 7] [µM] | IC50 [5, 8] [µM] | IC50 [5, 9] [µM] | Metab. Stabil. (m) ([2]; microsomal stability half-life) | Perm. (1 × 10^−6 cm/sec) ([3]; PAMPA) | Sol. ([4]; aqueous kinetic solubility) [µg/mL] | IC50 [1, 10] [µM] | Metab. Stabil. (m) [2, 11] [m] | IC50 [5, 12] [µM] | Papp ([3]; PAMPA, Perm. (1 × 10^−6 cm/sec)) [×10⁻⁶ cm/s] | SMILES |
| --- | --- | --- | --- | --- | --- | --- | --- | --- | --- | --- | --- | --- | --- | --- | --- | --- |
| in- active | >30 | <2.9 1 × 10^−6 cm/sec | <1 | in- active | – | – | – | – | – | – | – | – | – | – | – | CC1=C(C(=O)Nc2nnc(-c3cccnc3)s2)C(c2ccccc2Cl)N=C(Nc2nc3ccc(C)cc3o2)N1 (centres unmarked) [Compound 99, 4-(2-chlorophenyl)-2-((6-methylbenzo[d]oxazol-2-yl)amino)-6-methyl-N-(5-(pyridin-3-yl)-1,3,4-thiadiazol-2-yl)-1,4-dihydropyrimidine-5-carboxamide] |
| – | >30 | <1 1 × 10^−6 cm/sec | >51 | – | 4.85 | 4.85 | 19.3 | 19.3 | – | – | – | – | – | – | – | CC1=C(C(=O)Nc2cc(C(=O)O)ccn2)C(c2ccc(C)cc2Cl)N=C(Nc2nc3ncccc3o2)N1 (centres unmarked) [Compound 102, 2-(4-(2-chloro-4-methylphenyl)-6-methyl-2-(oxazolo[4,5-b]pyridin-2-ylamino)-1,4-dihydropyrimidine-5-carboxamido)isonicotinic acid] |
| – | >30 | <1.5 1 × 10^−6 cm/sec | <1 | – | – | 4.85 | – | 10.9 | – | – | – | – | – | – | – | CC1=C(C(=O)Nc2nnc(-c3cccnc3)s2)C(c2ccccc2Cl)N=C(Nc2nc3cc(C)ccc3o2)N1 (centres unmarked) [Compound 96, 4-(2-chlorophenyl)-2-((5-methylbenzo[d]oxazol-2-yl)amino)-6-methyl-N-(5-(pyridin-3-yl)-1,3,4-thiadiazol-2-yl)-1,4-dihydropyrimidine-5-carboxamide] |
| – | >30 | <1.8 1 × 10^−6 cm/sec | >52 | – | 3.06 | 3.06 | 4.32 | 4.32 | – | – | – | – | – | – | – | CC1=C(C(=O)Nc2cc(C(=O)O)ccn2)C(c2ccc(C)cc2Cl)N=C(Nc2nc3c(o2)CCCC3)N1 (centres unmarked) [Compound 109, 2-(4-(2-chloro-4-methylphenyl)-6-methyl-2-((4,5,6,7-tetrahydrobenzo[d]oxazol-2-yl)amino)-1,4-dihydropyrimidine-5-carboxamido)isonicotinic acid] |
| – | – | – | – | – | 3.06 | 3.06 | 10.9 | 10.9 | >30 | 421.9 1 × 10^−6 cm/sec | <1 | – | – | – | – | CNC(=O)c1ccnc(NC(=O)C2=C(C)NC(Nc3nc4ccccc4o3)=NC2c2ccccc2Cl)c1 (centres unmarked) [Compound 213, 2-(benzo[d]oxazol-2-ylamino)-4-(2-chlorophenyl)-6-methyl-N-(4-(methylcarbamoyl)pyridin-2-yl)-1,4-dihydropyrimidine-5-carboxamide] |
| – | – | – | – | – | 12.2 | 12.2 | 19.3 | 19.3 | >30 | 161.4 1 × 10^−6 cm/sec | <1 | – | – | – | – | CC1=C(C(=O)Nc2ncc(CO)s2)C(c2ccccc2Cl)N=C(Nc2nc3ccccc3o2)N1 (centres unmarked) [Compound 193, 2-(benzo[d]oxazol-2-ylamino)-4-(2-chlorophenyl)-N-(5-(hydroxymethyl)thiazol-2-yl)-6-methyl-1,4-dihydropyrimidine-5-carboxamide] |
| – | – | – | – | – | 10.9 | 10.9 | 6.85 | 6.85 | >30 | 32.7 1 × 10^−6 cm/sec | 37.5 | – | – | – | – | CC1=C(C(=O)Nc2cccc(CN)c2)C(c2ccccc2Cl)N=C(Nc2nc3ccccc3o2)N1 (centres unmarked) [Compound 171, N-(3-(aminomethyl)phenyl)-2-(benzo[d]oxazol-2-ylamino)-4-(2-chlorophenyl)-6-methyl-1,4-dihydropyrimidine-5-carboxamide] |
| – | 5.12 | 127.62 1 × 10^−6 cm/sec | >49 | – | 3.06 | 3.06 | 12.2 | 12.2 | – | – | – | – | – | – | – | CC1=C(C(=O)NCc2cnn(C)c2)C(c2ccc(C)cc2Cl)N=C(Nc2nc3cnccc3o2)N1 (centres unmarked) [Compound 104, 4-(2-chloro-4-methylphenyl)-6-methyl-N-((1-methyl-1H-pyrazol-4-yl)methyl)-2-(oxazolo[4,5-c]pyridin-2-ylamino)-1,4-dihydropyrimidine-5-carboxamide] |
| – | >30 | <1 1 × 10^−6 cm/sec | >53 | – | 0.09 | 0.09 | 1.41 | 1.41 | – | – | – | – | – | – | – | CC1=C(C(=O)Nc2cc(C(=O)O)ccn2)[C@H](c2ccc(C)cc2Cl)N=C(Nc2nc3cccc(N)c3o2)N1 [Compound 85, (R)-2-(2-((7-aminobenzo[d]oxazol-2-yl)amino)-4-(2-chloro-4-methylphenyl)-6-methyl-1,4-dihydropyrimidine-5-carboxamido)isonicotinic acid] |
| – | >30 | <1 1 × 10^−6 cm/sec | >87 | – | – | 0.77 | – | 3.43 | – | – | – | – | – | – | – | CC1=C(C(=O)Nc2cc(C(=O)O)ccn2)C(c2ccc(-n3cccn3)cc2Cl)N=C(Nc2nc3ccc(F)cc3o2)N1 (centres unmarked) [Compound 60, 2-(4-(2-chloro-4-(1H-pyrazol-1-yl)phenyl)-2-((6-fluorobenzo[d]oxazol-2-yl)amino)-6-methyl-1,4-dihydropyrimidine-5-carboxamido)isonicotinic acid] |
| – | – | – | – | – | – | – | – | – | – | 27.4 1 × 10^−6 cm/sec | 11.4 | 7.69 | >30 | 19.3 | – | CC1=C(C(=O)Nc2nncs2)C(c2n[nH]cc2Br)N=C(Nc2nc3ccccc3o2)N1 (centres unmarked) [Compound 268, 2-(benzo[d]oxazol-2-ylamino)-4-(4-bromo-1H-pyrazol-3-yl)-6-methyl-N-(1,3,4-thiadiazol-2-yl)-1,4-dihydropyrimidine-5-carboxamide] |
| – | – | – | – | – | 7.69 | – | 12.2 | 12.2 | >30 | 29.4 1 × 10^−6 cm/sec | <1 | – | – | – | – | CC1=C(C(=O)Nc2ccc(F)cc2)C(c2ccccc2Cl)N=C(Nc2nc3ccccc3o2)N1 (centres unmarked) [Compound 148, 2-(benzo[d]oxazol-2-ylamino)-N-(4-fluorophenyl)-4-(2-chlorophenyl)-6-methyl-1,4-dihydropyrimidine-5-carboxamide] |
| – | >30 | <1 1 × 10^−6 cm/sec | >51 | – | 0.86 | 0.86 | 6.85 | 6.85 | – | – | – | – | – | – | – | CC1=C(C(=O)Nc2cc(C(=O)O)ccn2)C(c2ccc(C)cc2Cl)N=C(Nc2nc3cnccc3o2)N1 (centres unmarked) [Compound 106, 2-(4-(2-chloro-4-methylphenyl)-6-methyl-2-(oxazolo[4,5-c]pyridin-2-ylamino)-1,4-dihydropyrimidine-5-carboxamido)isonicotinic acid] |
| – | – | – | – | – | – | 4.85 | – | 9.68 | >30 | <1 1 × 10^−6 cm/sec | 24.6 | – | – | – | – | CC1=C(C(=O)Nc2ccc(C(=O)O)nc2)C(c2ccccc2Cl)N=C(Nc2nc3ccccc3o2)N1 (centres unmarked) [Compound 164, 5-(2-(benzo[d]oxazol-2-ylamino)-4-(2-chlorophenyl)-6-methyl-1,4-dihydropyrimidine-5-carboxamido)picolinic acid] |
| – | – | – | – | – | – | – | – | – | – | 42.7 1 × 10^−6 cm/sec | <1 | 5.44 | >30 | 17.2 | – | CC(C)CC1=C(C(=O)Nc2nncs2)C(c2ccccc2Cl)N=C(Nc2nc3ccccc3o2)N1 (centres unmarked) [Compound 248, 2-(benzo[d]oxazol-2-ylamino)-4-(2-chlorophenyl)-6-isobutyl-N-(1,3,4-thiadiazol-2-yl)-1,4-dihydropyrimidine-5-carboxamide] |
| – | – | – | – | – | – | 1.09 | – | 6.85 | 17.76 | 142.4 1 × 10^−6 cm/sec | 15.63 | – | – | – | – | CC1=C(C(=O)NCc2cnn(C)c2)C(c2ccc(Cl)cc2Cl)N=C(Nc2nc3cccc(N)c3o2)N1 (centres unmarked) [Compound 123, 2-((7-aminobenzo[d]oxazol-2-yl)amino)-4-(2,4-dichlorophenyl)-N-((1-methyl-1H-pyrazol-4-yl)methyl)-6-methyl-1,4-dihydropyrimidine-5-carboxamide] |
| – | >30 | – | >78 | – | 0.12 | 0.12 | 1.72 | 1.72 | – | – | – | – | – | – | < 1 | CC1=C(C(=O)Nc2cc(C(=O)O)ccn2)C(c2ccc(C)cc2Cl)N=C(Nc2nc3cccc(N)c3o2)N1 (racemic) [Compound 79, 2-(2-((7-aminobenzo[d]oxazol-2-yl)amino)-4-(2-chloro-4-methylphenyl)-6-methyl-1,4-dihydropyrimidine-5-carboxamido)isonicotinic acid] |
